Values joined by “and” are separate entries in the source; they are usually repeats but may differ in a detail not shown here. Equal entries are not always repeated.
How the values were obtained:
[1] = xn = mol fraction of the nth substance listed; settings: 298 K; 100 kPa; Crystal of intercomponent compound 1; X-ray diffraction; x2 = 0.477
[2] = specific heat capacity at constant pressure; xn = mol fraction of the nth substance listed; settings: 100 kPa, Crystal of intercomponent compound 1, relaxation calorimetry, x2 = 0.477

[Se] [selenium] + [In]
Settings	mass density [kg/m3]
[1]	5546

[2]
Settings	specific heat capacity
10.11 K	10.21 J/K/kg and 10.22 J/K/kg and 10.23 J/K/kg
12.12 K	16.85 J/K/kg and 16.83 J/K/kg
12.14 K	16.97 J/K/kg
14.13 K	24.44 J/K/kg
14.15 K	24.49 J/K/kg
16.15 K	32.56 J/K/kg and 32.49 J/K/kg
16.16 K	32.62 J/K/kg
18.17 K	40.89 J/K/kg and 40.88 J/K/kg
18.18 K	40.87 J/K/kg
20.18 K	49.24 J/K/kg
20.19 K	49.1 J/K/kg and 49.16 J/K/kg
22.2 K	57.18 J/K/kg and 57.13 J/K/kg
22.21 K	56.97 J/K/kg
24.22 K	65.02 J/K/kg and 64.97 J/K/kg
24.23 K	64.87 J/K/kg
26.24 K	72.45 J/K/kg and 72.56 J/K/kg
28.25 K	79.57 J/K/kg
30.27 K	86.33 J/K/kg and 86.39 J/K/kg
32.78 K	94.54 J/K/kg
32.79 K	94.59 J/K/kg
35.31 K	102.49 J/K/kg and 102.64 J/K/kg
37.81 K	109.66 J/K/kg
37.82 K	109.87 J/K/kg
40.34 K	117.25 J/K/kg
40.35 K	116.73 J/K/kg and 116.68 J/K/kg
42.86 K	123.23 J/K/kg
42.87 K	122.77 J/K/kg
45.38 K	129.63 J/K/kg
45.39 K	129.32 J/K/kg
45.4 K	129.27 J/K/kg
47.9 K	135.36 J/K/kg
47.91 K	134.84 J/K/kg
50.41 K	141.5 J/K/kg
50.42 K	140.88 J/K/kg
50.44 K	140.73 J/K/kg
52.93 K	146.09 J/K/kg
52.95 K	145.42 J/K/kg
55.43 K	151.41 J/K/kg
55.46 K	150.74 J/K/kg
55.48 K	150.63 J/K/kg
57.97 K	155.28 J/K/kg
57.99 K	154.81 J/K/kg
60.46 K	160.13 J/K/kg
60.49 K	159.41 J/K/kg
60.52 K	159.25 J/K/kg
63.01 K	163.79 J/K/kg
63.04 K	162.97 J/K/kg
65.49 K	168.85 J/K/kg
65.53 K	167.77 J/K/kg
65.57 K	167.3 J/K/kg
68.05 K	171.53 J/K/kg
68.08 K	170.97 J/K/kg
70.52 K	176.23 J/K/kg
70.56 K	175.25 J/K/kg
70.63 K	173.96 J/K/kg
73.05 K	178.14 J/K/kg
73.09 K	177.31 J/K/kg
75.56 K	182.68 J/K/kg
75.6 K	181.49 J/K/kg
75.67 K	180.82 J/K/kg
78.13 K	184.75 J/K/kg
78.16 K	183.82 J/K/kg
80.57 K	189.39 J/K/kg
80.65 K	187.95 J/K/kg
80.71 K	187.02 J/K/kg
83.17 K	190.47 J/K/kg
83.2 K	189.7 J/K/kg
85.61 K	194.76 J/K/kg
85.69 K	193.42 J/K/kg
85.74 K	192.69 J/K/kg
88.19 K	195.84 J/K/kg
88.24 K	194.76 J/K/kg
90.63 K	200.23 J/K/kg
90.71 K	198.78 J/K/kg
90.78 K	197.54 J/K/kg
93.18 K	200.64 J/K/kg
93.24 K	199.45 J/K/kg
95.65 K	204.05 J/K/kg
95.74 K	202.39 J/K/kg
95.83 K	201.41 J/K/kg
98.2 K	204.15 J/K/kg
98.3 K	202.34 J/K/kg
100.79 K	205.8 J/K/kg
100.83 K	205.34 J/K/kg
100.91 K	207.4 J/K/kg
101.79 K	206.37 J/K/kg
101.88 K	205.18 J/K/kg
105.84 K	208.74 J/K/kg
105.86 K	208.07 J/K/kg
109.83 K	211.27 J/K/kg
109.93 K	209.1 J/K/kg
113.88 K	213.59 J/K/kg
113.93 K	212.1 J/K/kg
